Where a SMILES comes first, the peptide text is derived from it. The star is where a group is joined. Cbz = O=C(OCc1ccccc1)*
Key:
[1] = test system: mouse melanoma cell line B16; experiment: Antibody response (total IgG, ELISA) to B16 after immunization with supernatant in IFA; format: in vivo, mice; settings: B16 cells treated with inhibitor before supernatant collection
Experimental: (§1) Mice were immunized subcutaneusly with 100 μL of emulsion with supernatant containing released peptides and either Freund's Complete Adjuvant (CFA) or Freund's Incomplete Adjuvant (IFA). Nine days after the immunization, mice were killed, popliteal lymph nodes were smashed and cells were plated in flat-bottom 96-well plates and stimulated with PPD (3 μg/mL), OVA protein (30 μg/mL), OVA peptide 323-339 (3 μg/mL) or OVA peptide 257-264 (3 μg/mL). After 72 hours, the supernatant was collected and IFN-γ production was measured by ELISA.
(§2) To evaluate antibody response mice were killed four weeks after immunization, and serum was collected. The antibody titer to Salmonella and B16 antigens was evaluated by ELISA.
(§3) In order to identify the type of released tumor antigens, C57BL/6J mice were immunized subcutaneously with supernatant obtained from Salmonella infected or uninfected B16 cells treated or not with the gap-junction blocker (heptanol) or the proteasome inhibitor (MG132), emulsified with Freund's Incomplete adjuvant (IFA). Four weeks later inventors evaluated the amount of total IgG specific to Salmonella SL3261AT and to mouse melanoma cell line B16 by ELISA.

Salmonella SL3261AT = experiment: Antibody response (total IgG, ELISA) to Salmonella after immunization with supernatant in IFA; format: in vivo, mice; settings: B16 cells treated with inhibitor before supernatant collection
Experimental: as §1, §2, §3

[2] = target: T1, connexin hemichannels on the surface of melanoma cells (Mus musculus, UniProt P23242); experiment: Adenosine 5'-triphosphate (ATP) bioluminescent assay, extracellular ATP of B16 and B16 OVA cells; format: cell-based; settings: B16 and B16 OVA cells pretreated with heptanol (1 mM)
T1 construct: opening of connexin hemichannels on the surface of melanoma cells; endogenous in cells; host or cells: B16 and B16 OVA mouse melanoma cells
Experimental: Single bacterial colonies were grown overnight and restarted the next day to reach an absorbance at 600 nm ranging between 0.550 and 0.650 corresponding to 0,550-0,650×10^9 colony—forming units (CFUs)/mL. Tumor cells were incubated with or without Gap Junctions blocker, Heptanol (1 mM) for 1 hour and half at 37° C. Then, cells were incubated with bacteria for 1 hour and half at 37° C. at a cell-to-bacteria ratio of 1:50, in the appropriate medium without antibiotics. After incubation, the cells were washed and incubated at 37° C. in medium supplemented with gentamicin ([…]) for 2 hours. […]
Adenosine 5′-triphosphate (ATP) Biolumescent Assay (CellTiter-Glo Luminescent cell viability Assay, Promega) allow to measure the quantity of ATP containing in the samples. […]
Briefly, 100 μL of Assay Mix solution were added to a reaction vial for 3 minutes at room temperature; then rapidly were added […] of sample diluent, mixed and immediately measured the amount of light produced. […]
In order to assess whether Salmonella is able to stimulate the opening of connexin hemichannels on the surface of melanoma cells, inventors measured ATP extracellular concentration using an adenosine 5′-thriphosfate (ATP) bioluminescent assay (as described in Materials and Methods) in Salmonella treated B16 cells. […]

C57BL/6J mice = experiment: In vivo immunization with supernatant in CFA, IFN-gamma after in vitro recall of lymph node cells; settings: B16 OVA cells treated with heptanol
Experimental: Mice were immunized subcutaneusly with 100 μL of emulsion with supernatant containing released peptides and either Freund's Complete Adjuvant (CFA) or Freund's Incomplete Adjuvant (IFA). […] After 72 hours, the supernatant was collected and IFN-γ production was measured by ELISA.
To investigate whether the tumor peptides released from infected tumor cells could induce an in vivo immune response, C57BL/6J mice were immunized in the footpad with supernatant, obtained from B16 OVA cells infected or not with Salmonella SL3261AT, emulsified with Freund's complete adjuvant (CFA).
Briefly, nine days after immunization, the popliteal lymph nodes were removed and cells were stimulated in vitro with PPD (Tuberculin purified protein derivated), as a positive control, and OVA protein. After 72 hours of incubation, the amount of IFN-gamma secretion was assessed by ELISA to evaluate the activation of immune cells.

[3] = test system: MHC class I complex on the surface of T2 cells; experiment: T2 assay for peptide binding (stabilization of HLA-A0201 on T2 cells); format: cell-based, human; settings: tumor cells treated with the gap junction blocker before infection
Experimental: The next day, the cells were washed with FACS buffer (PBS, 0.1% sodium azide, 5% fetal bovin serum) and incubated for 10 min with blocking buffer (200 μg/mL mouse IgG in FACS buffer). Then, the cells were incubated for 20 minutes at +4° C. with BB7.2, an HLA-A2 conformation specific mouse antibody. The cells were washed twice with FACS buffer and fixed in paraformaldehyde for later acquisition by Accuri C6 Flow Cytometer (BD).
In order to investigate the release of MHC class I peptides by Salmonella infected tumor cells, inventors exploited the ability of exogenous peptides to stabilize the MHC class I complex on the surface of T2 cells. T2 are an HLA-A0201 hybrid human cell line lacking TAP-2 (transporter-associated with antigen processing) and consequently are defective in loading class I molecules with antigenic peptides generated in the cytosol. This leads to very unstable MHC class I molecules on the cell surface. […]
Briefly, inventors infected human melanoma cells SKmel-24 and colorectal adenocarcinoma cells HT29, with Vivofit®, an oral typhoid vaccine that contains live, attenuated cells of the bacteria Salmonella enterica serovar Thyphi (TY21a), and inventors collected the supernatant as described in Materials and Methods. […] Surface expression of HLA-A0201 was evaluated using a conformation-specific mouse antibody, as described in Materials and Methods.

[4] = test system: Mart-1 (26-35) specific CTLs; experiment: IFN-gamma production of Mart-1 specific CTLs cocultured with moDCs or PDC loaded with supernatant; format: cell-based, human
Experimental: To generate peptide-specific CTLs from PBMC, 106 PBMC HLA-A2+ were cultured in 1 mL of RPMI 1640 medium (supplemented with 5% human serum, 2 mM L-Glutamine, 100 U/mL Penicillin, 100 μg/mL Streptomycin, 10 μg/mL Gentamicin, 10 μg/mL beta-mercaptoethanol and 1% nonessential amino acids) in 24-well-plates. To this, 2×106 Mart-1-pulsed and irradiated (10 Gy) PBMC (HLA-A2) were added as antigen presenting cells in the same medium supplemented with 100 U/mL IL-2. To pulse PBMC they were incubated for 90 minutes at 37° C. in RPMI supplemented with 50 μM of peptide. After incubation, cell were washed twice and irradiated before mixing with the responding cells. The cells were stimulated at intervals of 10 days with irradiated peptide-pulsed autologous PBMC and 100 U/mL IL-2.
To evaluate the release of antigenic peptides inventors infected human melanoma cells SKmel24 and 624.38 with Salmonella TY21a in presence or not of heptanol and the supernatant was harvested as described in Materials and Methods.
After 72 hours of coculture, the amount of IFN-gamma secretion was measured by ELISA.

T1 sequence (P23242 2-382): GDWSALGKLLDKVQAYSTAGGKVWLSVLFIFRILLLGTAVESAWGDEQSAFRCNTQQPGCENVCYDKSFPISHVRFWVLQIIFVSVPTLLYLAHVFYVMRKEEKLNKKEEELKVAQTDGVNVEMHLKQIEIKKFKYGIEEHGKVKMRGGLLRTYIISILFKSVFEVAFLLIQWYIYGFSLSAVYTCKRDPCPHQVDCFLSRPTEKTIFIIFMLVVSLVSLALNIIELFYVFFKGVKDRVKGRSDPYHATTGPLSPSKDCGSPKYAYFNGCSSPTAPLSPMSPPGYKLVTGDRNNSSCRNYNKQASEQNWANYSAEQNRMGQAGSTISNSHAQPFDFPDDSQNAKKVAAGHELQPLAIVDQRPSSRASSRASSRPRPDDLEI

Compound | Effect on antibody response to B16 tumor peptides [1] | Effect on antibody response to Salmonella antigens (Salmonella SL3261AT) | Effect on Salmonella-induced release of extracellular ATP [2] | Effect on IFN-gamma production induced by supernatant immunization (C57BL/6J mice) | Effect on the MFI increase by supernatant of infected tumor cells [3] | Effect on CTL activation by supernatant of infected melanoma cells ([4]; tumor cells treated with the gap junction blocker) | Response of CTLs after exogenous addition of peptide ([4]; exogenous addition to blocker-treated condition)
CC(C)C[C@@H](C=O)NC(=O)[C@H](CC(C)C)NC(=O)[C@H](CC(C)C)NC(=O)OCc1ccccc1 [MG132] (Cbz-Leu-Leu-Leu-aldehyde) | reduced | reduced | – | – | – | – | –
CCCCCCCO [heptanol] | reduced | reduced | significantly reduced | reduced | abolished | significantly inhibits | –
Mart-1 (26-35): Mart-1 (26-35) peptide, positive control | – | – | – | – | – | – | restored completely the response

Reference: patent US20180346513A1, “METHOD FOR OBTAINING TUMOR PEPTIDES AND USES THEREOF” (ISTITUTO EUROPEO DI ONCOLOGIA S.R.L., priority 2015, published 2018)
